This note sets out measurements from PMC8397297 (ACS Chemical Neuroscience, 2021).

One experiment addresses T1, mGAT2 (Mus musculus, UniProt P31651).
T1 construct: expressed in transfected cells; host or cells: HEK-293
T1 sequence (P31651 1-614): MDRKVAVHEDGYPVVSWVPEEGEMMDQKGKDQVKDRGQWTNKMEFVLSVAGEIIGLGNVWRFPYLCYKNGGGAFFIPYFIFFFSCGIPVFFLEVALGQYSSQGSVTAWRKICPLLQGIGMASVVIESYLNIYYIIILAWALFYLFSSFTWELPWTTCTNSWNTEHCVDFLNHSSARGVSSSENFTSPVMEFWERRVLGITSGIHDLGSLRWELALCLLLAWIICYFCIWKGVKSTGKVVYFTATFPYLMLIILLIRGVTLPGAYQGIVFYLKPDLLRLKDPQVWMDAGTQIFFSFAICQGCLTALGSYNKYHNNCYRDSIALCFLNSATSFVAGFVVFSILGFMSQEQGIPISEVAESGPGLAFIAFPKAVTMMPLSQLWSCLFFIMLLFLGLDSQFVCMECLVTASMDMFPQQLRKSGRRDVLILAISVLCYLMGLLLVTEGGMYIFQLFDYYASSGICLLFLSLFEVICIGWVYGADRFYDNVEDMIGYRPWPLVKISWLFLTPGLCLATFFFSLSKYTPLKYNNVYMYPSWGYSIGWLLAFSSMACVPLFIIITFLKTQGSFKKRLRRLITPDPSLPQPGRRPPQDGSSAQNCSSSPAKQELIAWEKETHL
Kind of experiment: [3H]GABA uptake assay in HEK-293 cells stably expressing mGAT2. It is filed as cell-based. The following applies: for IC50: [3H]GABA uptake, read-out: pIC50 ± SEM mGAT2 (converted); for remaining [3H]GABA uptake mGAT2: in the presence of 100 μM inhibitor.

The next experiment addresses T2, mGAT4 (Mus musculus, UniProt P31650).
T2 construct: expressed in transfected cells; host or cells: HEK-293
T2 sequence (P31650 1-627): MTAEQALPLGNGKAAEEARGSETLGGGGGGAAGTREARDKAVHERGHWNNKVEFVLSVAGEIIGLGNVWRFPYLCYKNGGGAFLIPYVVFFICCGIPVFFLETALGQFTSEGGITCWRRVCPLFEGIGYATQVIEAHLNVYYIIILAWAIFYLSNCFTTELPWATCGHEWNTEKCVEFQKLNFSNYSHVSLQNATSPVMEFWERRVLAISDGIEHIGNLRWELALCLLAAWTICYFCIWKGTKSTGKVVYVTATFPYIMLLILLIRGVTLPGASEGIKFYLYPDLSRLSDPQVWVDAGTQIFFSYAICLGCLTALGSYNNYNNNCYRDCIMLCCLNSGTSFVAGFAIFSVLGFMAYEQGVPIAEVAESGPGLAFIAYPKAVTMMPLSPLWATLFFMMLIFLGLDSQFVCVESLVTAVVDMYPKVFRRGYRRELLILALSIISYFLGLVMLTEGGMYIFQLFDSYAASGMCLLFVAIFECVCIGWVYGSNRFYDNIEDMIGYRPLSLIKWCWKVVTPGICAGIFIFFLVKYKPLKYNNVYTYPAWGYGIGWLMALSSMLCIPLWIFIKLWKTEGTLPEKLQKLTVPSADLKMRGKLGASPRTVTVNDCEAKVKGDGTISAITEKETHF
Kind of experiment: [3H]GABA uptake assay in HEK-293 cells stably expressing mGAT4. It is filed as cell-based. Particulars: for IC50: [3H]GABA uptake, read-out: pIC50 ± SEM mGAT4 (converted).

For experiment [1], the target named is T3, mGAT1 (Mus musculus, UniProt P31648).
T3 construct: expressed in transfected cells; host or cells: HEK-293
Kind of experiment: [3H]GABA uptake assay in HEK-293 cells stably expressing mGAT1. In kind it is cell-based. Particulars: for IC50: [3H]GABA uptake, read-out: pIC50 ± SEM mGAT1 (converted); for remaining [3H]GABA uptake mGAT1: in the presence of 100 μM inhibitor.

Another experiment has as its target T4, mGAT3 (Mus musculus, UniProt P31649).
T4 construct: expressed in transfected cells; host or cells: HEK-293
T4 sequence (P31649 1-602): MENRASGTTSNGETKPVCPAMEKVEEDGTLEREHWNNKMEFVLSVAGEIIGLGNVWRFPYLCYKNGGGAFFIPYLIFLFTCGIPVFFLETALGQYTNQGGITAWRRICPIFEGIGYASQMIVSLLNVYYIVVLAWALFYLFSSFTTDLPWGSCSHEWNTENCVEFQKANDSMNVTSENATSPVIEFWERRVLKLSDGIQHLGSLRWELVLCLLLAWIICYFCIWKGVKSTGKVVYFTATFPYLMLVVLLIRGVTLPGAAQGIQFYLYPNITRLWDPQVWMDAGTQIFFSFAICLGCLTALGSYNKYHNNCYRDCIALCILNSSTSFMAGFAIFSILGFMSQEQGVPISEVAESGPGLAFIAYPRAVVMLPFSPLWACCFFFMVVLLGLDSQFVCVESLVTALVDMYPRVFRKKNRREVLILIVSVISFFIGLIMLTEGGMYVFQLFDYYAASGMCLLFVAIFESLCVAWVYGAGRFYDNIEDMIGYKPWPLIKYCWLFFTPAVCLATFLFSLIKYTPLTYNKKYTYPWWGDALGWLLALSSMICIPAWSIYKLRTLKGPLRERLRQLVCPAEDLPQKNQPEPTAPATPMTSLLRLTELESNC
Nature of the experiment: [3H]GABA uptake assay in HEK-293 cells stably expressing mGAT3. In kind it is cell-based. The following applies: [3H]GABA uptake; read-out: pIC50 ± SEM mGAT3 (converted).

In experiment [2] the target is T3, mGAT1. Nature of the experiment: competitive MS binding assay with NO711 as unlabeled marker (LC-ESI-MS/MS). Particulars: in the presence of 100 μM inhibitor. How it is done: Specific binding affinity toward mGAT1 was determined via a competitive mass spectrometry (MS) binding assay quantified by liquid chromatography–electrospray ionization tandem mass spectrometry (LC–ESI-MS/MS) with NO711 as an unlabeled marker.[50]
MS binding assays for mGAT1 were performed as described earlier.[50] Inhibition of mGAT1 binding by the synthesized compounds was determined in MS binding assays at a screening concentration of 100 μM and analyzed by LC–ESI-MS/MS.

For `Cc1ccsc1C(=C1CCN([C@H](C[C@@H](C)O)C(=O)NCc2ccccc2)CC1)c1sccc1C` (relative stereo) [2RS,4RS-37a, N-Benzyl-2-{4-[bis(3-methylthiophen-2-yl)methylidene]piperidin-1-yl}-4-hydroxypentanamide], the IC50 on mGAT2 was 24.5 µM; at mGAT4 it was 72.4 µM; at mGAT1 [1], 26.3 µM; at mGAT3, 41.7 µM. For the same compound, at mGAT1 [2], the “remaining NO711 binding mGAT1” value was 100 μM: 74%.

`Cc1ccsc1C(=C1CCN([C@H](C[C@@H](C)O)C(=O)NCc2ccc(F)cc2)CC1)c1sccc1C` (relative stereo) [2RS,4RS-37c, 2-{4-[Bis(3-methylthiophen-2-yl)methylidene]piperidin-1-yl}-N-[(4-fluorophenyl)methyl]-4-hydroxypentanamide]: the IC50 at mGAT2 was 15.8 µM; on mGAT4, 19.5 µM; at mGAT1 [1] it was 17.8 µM; on mGAT3, 11.5 µM. Besides, the “remaining NO711 binding mGAT1” value on mGAT1 [2] is listed as 100 μM: 76%.

With `C[C@@H](O)C[C@H](C(=O)NCc1ccc(Cl)cc1)N(C)CCC=C1c2ccccc2CCc2ccccc21` (relative stereo) [2RS,4RS-39b, N-(4-Chlorobenzyl)-2-((3-(10,11-dihydro-5H-dibenzo[a,d][7]annulen-5-ylidene)propyl)(methyl)amino)-4-hydroxypentanamide], the “remaining [3H]GABA uptake mGAT2” value at mGAT2 is given as 100 μM: 73%. Further, the figures for the IC50 on mGAT4 and on mGAT3 were 9.12 µM and 24 µM, respectively. Also, at mGAT1 [1], the “remaining [3H]GABA uptake mGAT1” value was 100 μM: 56%. The “remaining NO711 binding mGAT1” value at mGAT1 [2] is listed as 100 μM: 84%.

Consider `Cc1ccsc1C(=C1CCN([C@H](C[C@H](C)O)C(=O)NCc2ccccc2)CC1)c1sccc1C` (relative stereo) [2RS,4SR-37a, N-Benzyl-2-{4-[bis(3-methylthiophen-2-yl)methylidene]piperidin-1-yl}-4-hydroxypentanamide], for which the “remaining [3H]GABA uptake mGAT2” value at mGAT2 is given as 100 μM: 60%. The IC50 on mGAT4 was 27.5 µM; at mGAT1 [1], 29.5 µM; at mGAT3 it was 61.7 µM. Also, on mGAT1 [2], the “remaining NO711 binding mGAT1” value is on record as 100 μM: 78%.

Consider `C[C@H](O)C[C@H](C(=O)NCc1ccc(Cl)cc1)N(C)CCC=C1c2ccccc2CCc2ccccc21` (relative stereo) [2RS,4SR-39b, N-(4-Chlorobenzyl)-2-((3-(10,11-dihydro-5H-dibenzo[a,d][7]annulen-5-ylidene)propyl)(methyl)amino)-4-hydroxypentanamide], for which the “remaining [3H]GABA uptake mGAT2” value on mGAT2 is 100 μM: 73%. In addition, the values for the IC50 on mGAT4 and at mGAT3 were 9.12 µM and 10.2 µM, respectively. Further, at mGAT1 [1], the “remaining [3H]GABA uptake mGAT1” value is on record as 100 μM: 51%. On mGAT1 [2], the “remaining NO711 binding mGAT1” value is listed as 100 μM: 87%.

As to `Cc1ccc(CNC(=O)[C@@H](C[C@H](C)O)N(C)CCC=C2c3ccccc3CCc3ccccc32)cc1` (relative stereo) [2RS,4SR-39c, 2-((3-(10,11-Dihydro-5H-dibenzo[a,d][7]annulen-5-ylidene)propyl)(methyl)amino)-4-hydroxy-N-(4-methylbenzyl)pentanamide], the IC50 on mGAT2 is 8.13 µM; on mGAT4 it was 6.92 µM; on mGAT3 it was 7.94 µM. Further, the “remaining [3H]GABA uptake mGAT1” value on mGAT1 [1] is 100 μM: 51%. Further, the “remaining NO711 binding mGAT1” value at mGAT1 [2] was 100 μM: 73%.

On to `Cc1ccsc1C(=C1CCN(C(CC(C)O)C(=O)NCc2ccccc2Cl)CC1)c1sccc1C` (stereo not shown) [2RS,4RS-37b, 2-{4-[Bis(3-methylthiophen-2-yl)methylidene]piperidin-1-yl}-N-[(2-chlorophenyl)methyl]-4-hydroxypentanamide], for which the “remaining [3H]GABA uptake mGAT2” value at mGAT2 is reported as 100 μM: 58%. In addition, the IC50 on mGAT4 was 61.7 µM; on mGAT3, 93.3 µM. At mGAT1 [1], the “remaining [3H]GABA uptake mGAT1” value is listed as 100 μM: 52%. For the same compound, the “remaining NO711 binding mGAT1” value on mGAT1 [2] is reported as 100 μM: 94%.

Turning to `CC(O)CC(C(=O)NCc1ccc(F)cc1)N(C)CCC=C1c2ccccc2CCc2ccccc21` (stereo not shown) [2RS,4RS-39a, 2-((3-(10,11-Dihydro-5H-dibenzo[a,d][7]annulen-5-ylidene)propyl)(methyl)amino)-N-(4-fluorobenzyl)-4-hydroxypentanamide], the IC50 at mGAT2 is 12.6 µM; at mGAT4, 25.1 µM; on mGAT3, 14.8 µM. On mGAT1 [1], the “remaining [3H]GABA uptake mGAT1” value is reported as 100 μM: 51%. Further, the “remaining NO711 binding mGAT1” value at mGAT1 [2] was 100 μM: 110%.

Regarding `CC(O)CC(C(=O)NCc1ccccc1)N1CCC(=C2c3ccccc3-c3ccccc32)CC1` (stereo not shown) [2RS,4RS-41a, N-Benzyl-2-[4-(9H-fluoren-9-ylidene)piperidin-1-yl]-4-hydroxypentanamide], the figures for the IC50 on mGAT2 and at mGAT3 were 74.1 µM and 64.6 µM, respectively. Further, on mGAT4 (in the presence of 100 μM inhibitor), the “remaining [3H]GABA uptake mGAT4” value was found to be 52%. At mGAT1 [1], the “remaining [3H]GABA uptake mGAT1” value is given as 100 μM: 49%. Besides, on mGAT1 [2], the “remaining NO711 binding mGAT1” value is on record as 100 μM: 92%.

For `CC(O)CC(C(=O)NCc1ccccc1)N1CCC(=C2c3ccccc3CCc3ccccc32)CC1` (stereo not shown) [2RS,4RS-43a, N-Benzyl-2-(4-(10,11-dihydro-5H-dibenzo[a,d][7]annulen-5-ylidene)piperidin-1-yl)-4-hydroxypentanamide], the IC50 on mGAT2 is 56.2 µM; on mGAT4 it was 26.3 µM; at mGAT1 [1], 17 µM; at mGAT3, 21.4 µM. The “remaining NO711 binding mGAT1” value on mGAT1 [2] was 100 μM: 77%.

As to `CC(O)CC(C(=O)NCc1ccc(F)cc1)N1CCC(=C2c3ccccc3CCc3ccccc32)CC1` (stereo not shown) [2RS,4RS-43b, 2-(4-(10,11-Dihydro-5H-dibenzo[a,d][7]annulen-5-ylidene)piperidin-1-yl)-N-(4-fluorobenzyl)-4-hydroxypentanamide], on mGAT2, the “remaining [3H]GABA uptake mGAT2” value is 100 μM: 59%. The IC50 at mGAT4 was 47.9 µM; at mGAT1 [1], 70.8 µM; on mGAT3 it was 38 µM. The “remaining NO711 binding mGAT1” value on mGAT1 [2] is listed as 100 μM: 86%.

With `CC(O)CC(C(=O)NCc1ccccc1)N(C)CCON=C(c1ccccc1)c1ccccc1` (stereo not shown) [2RS,4RS-45, N-Benzyl-2-[(2-{[(diphenylmethylidene)amino]oxy}ethyl)(methyl)amino]-4-hydroxypentanamide], the IC50 on mGAT2 is 45.7 µM; at mGAT4 it was 28.2 µM; on mGAT1 [1] it was 43.7 ± 0.801 µM; at mGAT3 it was 20 µM. Besides, on mGAT1 [2], the “remaining NO711 binding mGAT1” value was 100 μM: 100%.

On to `Cc1ccc(CNC(=O)C(CO)N(C)CCC=C2c3ccccc3CCc3ccccc32)cc1` (stereo not shown) [Compound 56e, 2-((3-(10,11-Dihydro-5H-dibenzo[a,d][7]annulen-5-ylidene)propyl)(methyl)amino)-3-hydroxy-N-(4-methylbenzyl)propanamide], for which the IC50 was 28.8 µM on mGAT2, 11.2 µM on mGAT4, 18.6 µM on mGAT1 [1] and 20.4 µM at mGAT3.
